The values that follow come from the OPERA property sets (Mansouri et al. 2018).

For `C#CC(C)C`, the boiling point amounted to 26.3 °C and the melting point is -89.7 °C.

With `O=P(OC(CCl)CCl)(OC(CCl)CCl)OC(CCl)CCl`, the melting point amounted to 27 °C and the ready biodegradability result was “not readily biodegradable”.

The molecule `CC(=O)CC(c1ccc(Cl)cc1)c1c(O)c2ccccc2oc1=O` (centres undefined) yielded a melting point of 169 °C.

The molecule `CCN1C[C@]2(COC)[C@H](O)C[C@H](OC)[C@]34C1[C@H]([C@H](OC)[C@H]23)[C@]1(O)[C@H]2[C@@H](O)[C@](O)(C[C@H]24)[C@@H](OC)[C@@H]1O` came in with a melting point of 132 °C.

`C=CC(OC)OC` returned a boiling point of 88 °C.

`CCN1C(=O)CCC1=O` returned a boiling point of 236 °C and a melting point of 26 °C.

Molecule `CCC(Br)(CC)C(=O)NC(N)=O` had a melting point of 118 °C.

For `CC(C)=CCl`, the boiling point was found to be 68 °C.

On to `C[C@]12CCC(=O)C=C1CC[C@@H]1[C@@H]2CC[C@]2(C)C(=O)CC[C@@H]12`, for which the melting point amounted to 158 °C.

As for `C[C@]12COC(=O)C[C@@H]1CC[C@@H]1[C@@H]2CC[C@@]2(C)[C@H]1CC[C@]2(C)O`, the melting point is 236 °C.

In the case of `CC(C)CC(=O)Cl`, the boiling point was 114 °C.

Take `CCCCOC(=O)C(=O)OCCCC`: the boiling point amounted to 241 °C and the melting point was -30.5 °C.

Turning to `CCCOC(N)=O`, the boiling point came out at 196 °C, the log10 vapour pressure (mmHg) was -1.26 and the melting point was determined as 60 °C.

`On1nnc2ccccc21` gave a melting point of 158 °C.

Take `Nc1ccc(F)cc1`: the boiling point was determined as 182 °C and the melting point is -0.8 °C.

Regarding `CC(C)(C)c1ccc(O)c(O)c1`, the boiling point was 285 °C and the melting point amounted to 54.3 °C.

The molecule `Cc1cc2c(cc1O)[C@@]1(C)CCCC(C)(C)[C@@H]1CC2=O` displayed a melting point of 250 °C.

`CCCCCCC(C)C`: the boiling point was 143 °C, the log10 biodegradation half-life (days) was determined as 0.699, the log10 vapour pressure (mmHg) turned out to be 0.793 and the melting point was -80.3 °C.

In turn, `CN(C)P(=O)(OP(=O)(N(C)C)N(C)C)N(C)C` registered a log10 vapour pressure (mmHg) of -3 and a melting point of 17 °C.

For `O=C(c1ccccc1)c1ccccn1`, the boiling point worked out at 317 °C, the melting point turned out to be 42 °C and the ready biodegradability entry is “readily biodegradable”.

`COc1ccc(CO)cc1` returned a boiling point of 259 °C and a melting point of 25 °C.

As to `CS(=O)(=O)O`, the log10 vapour pressure (mmHg) is -3.37, the melting point amounted to 20 °C and the ready biodegradability result was “readily biodegradable”.

The molecule `ClC1=C(Cl)[C@]2(Cl)[C@H]3[C@H]([C@@H]4O[C@]4(Cl)[C@@H]3Cl)[C@@]1(Cl)C2(Cl)Cl` (mixture of isomers) yielded a boiling point of 353 °C, a log10 Koa of 8.39 and a melting point of 144 °C.

Turning to `CNCCO`, the boiling point was determined as 158 °C, the log10 vapour pressure (mmHg) worked out at 0.0346, the melting point was -4.5 °C and the ready biodegradability entry was “readily biodegradable”.

The molecule `OCCN1CCCCC1` gave a boiling point of 202 °C and a melting point of 17.9 °C.

The molecule `FC(F)C(F)(F)C(F)Cl` (centres undefined) came in with a boiling point of 28.1 °C and a melting point of 85 °C.

For the molecule `c1ccc2c(c1)CCCN2`, the boiling point came to 251 °C and the melting point worked out at 20 °C.

The molecule `Clc1ccc2oc3c(Cl)c(Cl)c(Cl)c(Cl)c3c2c1Cl` displayed a log10 Koa of 10.9.

Turning to `O=[N+]([O-])c1cc(Cl)ccc1Cl`, the boiling point was 267 °C, the log10 Henry constant (atm·m³/mol) was -4.92, the melting point was 56 °C and the ready biodegradability result is given as “not readily biodegradable”.

On to `C=C(C)C=O`, for which the boiling point was determined as 68.4 °C, the log10 Henry constant (atm·m³/mol) is -3.63, the log10 vapour pressure (mmHg) was 2.19 and the melting point was -81 °C.

`O=COCc1ccccc1` had a boiling point of 203 °C.

With `OC[C@@H](O)[C@H](O)[C@@H](O)CO`, the melting point turned out to be 98.8 °C and the ready biodegradability result was “readily biodegradable”.

`CNC(=O)Oc1ccc2c(c1)[C@]1(C)CCO[C@@H]1N2C` had a melting point of 124 °C.

As to `CC=C1CC2C=CC1C2` (centres undefined), the boiling point amounted to 146 °C and the ready biodegradability result was “not readily biodegradable”.

Regarding `C=C(C)C(=O)OCCOCCOC(=O)C(=C)C`, the ready biodegradability entry is recorded as “readily biodegradable”.

The molecule `CC(C(O)c1ccc(O)cc1)N1CCC(Cc2ccccc2)CC1` (centres undefined) displayed a melting point of 114 °C.

`ClC(Cl)(Cl)CC(Cl)(Cl)Cl`: the boiling point was 206 °C and the melting point was -27 °C.

`CC=CC=CCO` displayed a melting point of 30.5 °C.

`CCCCCC1OC1CC1OC1CCCCCCCC(=O)OCC(COC(=O)CCCCCCCC1OC1CC1OC1CCCCC)OC(=O)CCCCCCCC1OC1CC1OC1CCCCC` (centres undefined): the ready biodegradability result was “readily biodegradable”.

For `CC(C)OC(=O)Cl`, the boiling point was 105 °C, the log10 vapour pressure (mmHg) came out at 1.57 and the ready biodegradability entry was “not readily biodegradable”.

Regarding `Cn1c2ccccc2c2ccccc21`, the melting point was 89.3 °C.

In the case of `COC(=O)c1ccccc1C(=O)c1ccccc1`, the boiling point came out at 351 °C, the melting point is 52 °C and the ready biodegradability entry is “not readily biodegradable”.

`CC=C(C)CCC` showed a log10 vapour pressure (mmHg) of 1.7.

For the molecule `CC(C)(S)[C@@H](N)C(=O)O`, the melting point was found to be 198 °C.

`S=C(c1ccccc1)c1ccccc1` returned a melting point of 53.5 °C.

The molecule `CC#C[C@]1(O)CC[C@H]2[C@@H]3C[C@H](C)C4=CC(=O)CC[C@]4(C)[C@H]3CC[C@@]21C` gave a melting point of 102 °C.

`CC1=CC(C)(C)Nc2ccccc21`: the boiling point is 260 °C, the melting point was found to be 26.5 °C and the ready biodegradability result is given as “not readily biodegradable”.

With `COc1ccccc1OC`, the boiling point turned out to be 206 °C, the log10 Koc (L/kg) was found to be 2.03, the log10 vapour pressure (mmHg) was -0.328 and the melting point is 22.5 °C. In addition, the ready biodegradability result is on record as “readily biodegradable”.

In turn, `CCCCN(CCCC)CCCN` yielded a boiling point of 205 °C.

With `CC(=O)Nc1ccc(S(=O)(=O)O)cc1`, the ready biodegradability result is recorded as “not readily biodegradable”.

Usually boiling point stands for the temperature at which the vapour pressure of the liquid equals the pressure above it. By melting point is commonly meant the temperature of the solid-liquid transition.
